The results in this text go back to patent USRE47689E1, “Compounds for treating spinal muscular atrophy” (PTC Therapeutics, Inc., priority 2011, dated 2019).

A word on the melting point: it is the temperature, or range, at which the solid turns liquid.

The subject of series [1] is SMN2 minigene (full length SMN2 minigene mRNA containing SMN2 exon 7). As to the kind of experiment: SMN2 minigene mRNA splicing RT-qPCR assay in cultured cells. In kind it is cell-based, human. As to conditions: Homo sapiens, HEK293-H, read-out: EC1.5x for production of full length SMN2 mRNA. The procedure, abridged:
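HEK293H cells stably carrying the SMN2-A minigene treated 24 h at 37° C with compound (DMSO, 200× stock), then lysed. Multiplex RT-qPCR (SMN primers 0.4 μM final; 40 cycles) measures full-length exon 7-containing minigene mRNA, normalized to GAPDH and to vehicle; EC1.5x derived and binned by stars.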
(In general: Real-time PCR tracks product formation cycle by cycle.)

Series [2] has as its system Smn protein. The series is described as follows: Smn protein assay in cultured cells (SMN HTRF). In kind it is cell-based, human. The settings on record: 48 hours; for EC1.5x (concentration giving 1.5-fold Smn protein increase): SMA Type 1 patient fibroblast cells (GM03813), 7-point concentration curve, SMN HTRF, concentration producing 1.5 times Smn protein vs DMSO vehicle control, read-out: EC1.5x for Smn protein expression; for maximum fold (Fold) increase of Smn protein: SMA patient fibroblast cells, 7-point concentration data, fold increase relative to vehicle control (SMN HTRF). The procedure, abridged: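 Lysates in RIPA with protease inhibitors are incubated overnight at room temperature with HTRF anti-SMN antibodies. EC1.5x is derived from fold increase in ΔF over vehicle.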
On the technique in general: In TR-FRET formats the signal depends on donor and acceptor labels being close together.

The mark [3] stands for this setting: HEK293H cells stably transfected with SMN2-A minigene, 24 hours, 7-point concentration curve, 1.5-fold relative to vehicle-treated cells.

Like-named read-outs stand apart in the source and are kept apart here.

Take `Cc1cn2cc(-c3cc4ccc(OCCN(C)C)cc4oc3=O)nc2c(C)n1` [Cpd 876, 7-[2-(dimethylamino)ethoxy]-3-(6,8-dimethylimidazo[1,2-a]pyrazin-2-yl)-2H-chromen-2-one]: the melting point is 251 to 253 °C. Also, the EC (1.5-fold) in series [1] (setting [3]) was < 0.1 µM. Besides, in series [2], the EC1.5x (concentration giving 1.5-fold Smn protein increase) is < 300 nM; the “maximum fold (Fold) increase of Smn protein” value (“maximum fold (Fold) increase” for short) was “**** (fold increase between >1.5 and ≤1.65)”.

As to `Cc1ccc2nc(-c3cc4ccc(N5CCCNCC5)cc4oc3=O)cn2c1` [Compound 176, 7-(1,4-diazepan-1-yl)-3-(6-methylimidazo[1,2-a]pyridin-2-yl)-2H-chromen-2-one], the melting point was in the range of 218 to 220 °C. Further, the EC (1.5-fold) in series [1] (setting [3]) lay in the range of 1 to 3 µM. The “maximum fold (Fold) increase” value in series [2] is “* (maximum fold increase of ≤1.2)”.

For `Cc1cn2cc(-c3cc4ccc(Cn5ccnc5)cc4oc3=O)nc2c(C)n1` [Compound 851, 3-(6,8-dimethylimidazo[1,2-a]pyrazin-2-yl)-7-(1H-imidazol-1-ylmethyl)-2H-chromen-2-one], the melting point lay in the range of 286 to 292 °C. Further, in series [1] (setting [3]), the EC (1.5-fold) is 1 to 3 µM. Besides, in series [2], the “maximum fold (Fold) increase” value is “*** (fold increase between >1.35 and ≤1.5)”.

Molecule `CCN1CCN(c2ccc3cc(-c4cn5ccsc5n4)c(=O)oc3c2)CC1` [Compound 201, 7-(4-ethylpiperazin-1-yl)-3-(imidazo[2,1-b][1,3]thiazol-6-yl)-2H-chromen-2-one] returned a melting point of 202 to 205 °C. In addition, the EC (1.5-fold) in series [1] (setting [3]) was 0.3 to 1 µM. Also, in series [2], the “maximum fold (Fold) increase” value was “** (fold increase between >1.2 and ≤1.35)”.

Turning to `Cc1ccc2nc(-c3cc4ccc(N5C[C@@H]6C[C@H]5CN6)cc4oc3=O)cn2c1` [Compound 173, 7-[(1S,4S)-2,5-diazabicyclo[2.2.1]hept-2-yl]-3-(6-methylimidazo[1,2-a]pyridin-2-yl)-2H-chromen-2-one], the melting point lay within 212 to 215 °C. For the same molecule, the EC (1.5-fold) in series [1] (setting [3]) fell in the range of 0.3 to 1 µM. For the same molecule, the “maximum fold (Fold) increase” value in series [2] was “** (fold increase between >1.2 and ≤1.35)”.

As to `Cc1cn2cc(-c3cc4ccc(N5CCN[C@@H](C)C5)cc4oc3=O)cc2c(C)n1` [Compound 680, 3-(1,3-dimethylpyrrolo[1,2-a]pyrazin-7-yl)-7-[(3S)-3-methylpiperazin-1-yl]-2H-chromen-2-one], the melting point lay within 162 to 165 °C. For the same molecule, the EC (1.5-fold) in series [1] (setting [3]) was < 0.1 µM. In addition, in series [2], the EC1.5x (concentration giving 1.5-fold Smn protein increase) was < 300 nM; the “maximum fold (Fold) increase” value was “**** (fold increase between >1.5 and ≤1.65)”.

`Cc1ccn2cc(-c3cc4ccc(NC5CCN(C)CC5)cc4oc3=O)nc2c1` [Compound 474, 3-(7-methylimidazo[1,2-a]pyridin-2-yl)-7-[(1-methylpiperidin-4-yl)amino]-2H-chromen-2-one]: the melting point was 224 to 230 °C. In series [1] (setting [3]), the EC (1.5-fold) is 1 to 3 µM. Further, the “maximum fold (Fold) increase” value in series [2] is reported as “* (maximum fold increase of ≤1.2)”.

`Cc1cc(F)c2nc(-c3cc4ccc(N5CC6CCC(C5)N6C)cc4oc3=O)cn2c1` [Compound 613, 3-(8-fluoro-6-methylimidazo[1,2-a]pyridin-2-yl)-7-(8-methyl-3,8-diazabicyclo[3.2.1]oct-3-yl)-2H-chromen-2-one] showed a melting point of 267 to 274 °C. For the same molecule, in series [1] (24 h), the EC (1.5-fold) was 0.3 to 1 µM. Moreover, the “maximum fold (Fold) increase” value in series [2] was “** (fold increase between >1.2 and ≤1.35)”.

`Cc1cn2cc(-c3cc4ccc(N5CC[C@H]6CN(C)C[C@H]65)cc4oc3=O)nc2c(C)n1` [Compound 689, 3-(6,8-dimethylimidazo[1,2-a]pyrazin-2-yl)-7-[(3aS,6aS)-5-methylhexahydropyrrolo[3,4-b]pyrrol-1(2H)-yl]-2H-chromen-2-one]: the melting point was 241 to 248 °C. For the same molecule, the EC (1.5-fold) in series [1] (setting [3]) was in the range of 0.3 to 1 µM. Further, the “maximum fold (Fold) increase” value in series [2] is “*** (fold increase between >1.35 and ≤1.5)”.

`C[C@@H]1CN(c2cc(F)c3cc(-c4cn5cccc(Cl)c5n4)c(=O)oc3c2)C[C@H](C)N1` [Compound 388, 3-(8-chloroimidazo[1,2-a]pyridin-2-yl)-7-[(3R,5S)-3,5-dimethylpiperazin-1-yl]-5-fluoro-2H-chromen-2-one]: the melting point fell in the range of 290 to 300 °C. Also, in series [1] (setting [3]), the EC (1.5-fold) fell in the range of 0.3 to 1 µM. Moreover, the “maximum fold (Fold) increase” value in series [2] is “** (fold increase between >1.2 and ≤1.35)”.

Regarding `Cc1cc2cc(-c3cc4ccc(N5CCN[C@@H](C)C5)cc4oc3=O)oc2c(C)n1` [Compound 804, 3-(5,7-dimethylfuro[2,3-c]pyridin-2-yl)-7-[(3S)-3-methylpiperazin-1-yl]-2H-chromen-2-one], the melting point is 253 to 257 °C. Further, the EC (1.5-fold) in series [1] (setting [3]) was < 0.1 µM. Besides, in series [2], the EC1.5x (concentration giving 1.5-fold Smn protein increase) is < 300 nM and the “maximum fold (Fold) increase” value is recorded as “***** (fold increase >1.65)”.

Turning to `CCN1CCN(c2ccc3cc(-c4cc5c(C)nc(C)cn5c4)c(=O)oc3c2)C[C@@H]1C` [Compound 694, 3-(1,3-dimethylpyrrolo[1,2-a]pyrazin-7-yl)-7-[(3S)-4-ethyl-3-methylpiperazin-1-yl]-2H-chromen-2-one], the melting point was in the range of 173 to 175 °C. The EC (1.5-fold) in series [1] (setting [3]) was < 0.1 µM. In addition, in series [2], the EC1.5x (concentration giving 1.5-fold Smn protein increase) is < 300 nM; the “maximum fold (Fold) increase” value is “**** (fold increase between >1.5 and ≤1.65)”.

The molecule `Cc1cn2cc(-c3cc4ccc(CCN(C)CCO)cc4oc3=O)nc2c(C)n1` [Compound 871, 3-(6,8-dimethylimidazo[1,2-a]pyrazin-2-yl)-7-{2-[(2-hydroxyethyl)(methyl)amino]ethyl}-2H-chromen-2-one] gave a melting point of 168 to 172 °C. In addition, in series [1] (setting [3]), the EC (1.5-fold) was < 0.1 µM. Besides, in series [2], the EC1.5x (concentration giving 1.5-fold Smn protein increase) was < 300 nM; the “maximum fold (Fold) increase” value was “**** (fold increase between >1.5 and ≤1.65)”.

For `CNCCCCc1ccc2cc(-c3cn4cc(C)nc(C)c4n3)c(=O)oc2c1` [Compound 952, 3-(6,8-dimethylimidazo[1,2-a]pyrazin-2-yl)-7-[4-(methylamino)butyl]-2H-chromen-2-one], the melting point was in the range of 180 to 184 °C. In addition, the EC (1.5-fold) in series [1] (setting [3]) is < 0.1 µM. In series [2], the EC1.5x (concentration giving 1.5-fold Smn protein increase) is < 300 nM and the “maximum fold (Fold) increase” value is on record as “***** (fold increase >1.65)”.

For the molecule `Cc1cc(F)c2nc(-c3cc4ccc(N[C@@H]5CCNC5)cc4oc3=O)cn2c1` [Compound 583, 3-(8-fluoro-6-methylimidazo[1,2-a]pyridin-2-yl)-7-[(3R)-pyrrolidin-3-ylamino]-2H-chromen-2-one], the melting point was in the range of 231 to 238 °C. The EC (1.5-fold) in series [1] (setting [3]) was in the range of 0.3 to 1 µM. Also, the “maximum fold (Fold) increase” value in series [2] was “** (fold increase between >1.2 and ≤1.35)”.

On to `Cc1cn2cc(-c3cc4ccc(N5CC(N6CCCCC6)C5)cc4oc3=O)nc2c(C)n1` [Compound 951, 3-(6,8-dimethylimidazo[1,2-a]pyrazin-2-yl)-7-[3-(piperidin-1-yl)azetidin-1-yl]-2H-chromen-2-one], for which the melting point is 284 to 286 °C. The EC (1.5-fold) in series [1] (setting [3]) is < 0.1 µM. Also, in series [2], the EC1.5x (concentration giving 1.5-fold Smn protein increase) lay in the range of 1000 to 3000 nM; the “maximum fold (Fold) increase” value is “**** (fold increase between >1.5 and ≤1.65)”.

For the molecule `Cc1cn2cc(-c3cc4ccc(N5CCNCC5)cc4oc3=O)cc2c(C)n1` [Compound 670, 3-(1,3-dimethylpyrrolo[1,2-a]pyrazin-7-yl)-7-(piperazin-1-yl)-2H-chromen-2-one], the melting point was in the range of 186 to 189 °C. For the same molecule, in series [1] (setting [3]), the EC (1.5-fold) was < 0.1 µM. Also, in series [2], the EC1.5x (concentration giving 1.5-fold Smn protein increase) was < 300 nM and the “maximum fold (Fold) increase” value is recorded as “***** (fold increase >1.65)”.

The molecule `CN1CCN(c2ccc3cc(-c4nc5c(Cl)cccc5s4)c(=O)oc3c2)CC1` [Compound 17, 3-(4-chloro-1,3-benzothiazol-2-yl)-7-(4-methylpiperazin-1-yl)-2H-chromen-2-one] came in with a melting point of 256 to 260 °C. Besides, in series [1] (setting [3]), the EC (1.5-fold) is 0.3 to 1 µM. Moreover, the “maximum fold (Fold) increase” value in series [2] is “** (fold increase between >1.2 and ≤1.35)”.

Take `C[C@H]1CN(c2ccc3cc(-c4cn5cccc(Cl)c5n4)c(=O)oc3c2)CCN1C` [Compound 339, 3-(8-chloroimidazo[1,2-a]pyridin-2-yl)-7-[(3S)-3,4-dimethylpiperazin-1-yl]-2H-chromen-2-one]: the melting point is 184 to 186 °C. Besides, the EC (1.5-fold) in series [1] (setting [3]) lay in the range of 0.1 to 0.3 µM. For the same molecule, in series [2], the “maximum fold (Fold) increase” value was “* (maximum fold increase of ≤1.2)”.

In turn, `Cc1cn2cc(-c3cc4c(F)cc(N5CCCN(C)CC5)cc4oc3=O)nc2cn1` [Compound 591, 5-fluoro-7-(4-methyl-1,4-diazepan-1-yl)-3-(6-methylimidazo[1,2-a]pyrazin-2-yl)-2H-chromen-2-one] yielded a melting point of 210 to 212 °C. Besides, the EC (1.5-fold) in series [1] (setting [3]) was < 0.1 µM. Besides, in series [2], the EC1.5x (concentration giving 1.5-fold Smn protein increase) was < 300 nM and the “maximum fold (Fold) increase” value is recorded as “***** (fold increase >1.65)”.
